Values of other authors in US20010043957A1, “Lypolytic composition” (priority 2000, published 2001).

Experiments:
[1] = group of animals
[2] = per day, most healthy people, caffeine and related methylxanthines

Cn1c(=O)c2c(ncn2C)n(C)c1=O [caffeine]
loss in body weight [1]: not significant loss in body weight
amount safely consumed without adverse reactions [2]: up to 200 mg

CN[C@@H](C)[C@H](O)c1ccccc1 [ephedrine]
loss in body fat [1]: 42%
loss in body weight [1]: 14%
